{
  "source": "patent US9480695B2",
  "about": "“Methods for inducing orexin neurons and agent for treating narcolepsy or eating disorder” (THE UNIVERSITY OF TOKYO, priority 2011, dated 2016)",
  "key": {"[1]": {"system": "Mouse ES cells (J1 strain)", "test": "Hcrt expression in mouse ES cells, SFEB/gfCDM differentiation culture system, RT-PCR", "assay_type": "cell-based", "conditions": "1.0 mM from 7th day of differentiation culturing", "procedure": "Mouse ES cells (J1 strain) which had been maintained in a medium for an ES cell were seeded on a 96-well low adhering round-bottom culture dish (Nunc) so that the cell count became 10,000 cells per well, and cultured with gfCDM [IMDM/F12 (Invitrogen) added with 5 mg/ml BSA (SIGMA), 450 μM Monothioglycerol (Wako), 1× chemically defined lipid concentrate (Invitrogen), 50 U/ml penicillin/50 μg/ml streptomycin] for 7 days. The cells were cultured in 150 μl of a medium per well. On 7th day of differentiation culturing, the medium was exchanged with a DFK medium [DMEM/F12 (Invitrogen) added with 7 g/1 glucose, 10% KSR, 50 U/ml penicillin/50 μg/ml streptomycin], and on 10th day, half the amount of the medium was exchanged with a DFNB medium [7 g/1 glucose, 1×N2 (Wako), 1×B27 (Invitrogen)] containing 10 ng/ml CNTF. On 13th day of culturing, cells were detached with 0.05% trypsin/EDTA, seeded on a culture dish (Falcon) which had been treated with poly-D-lysine/laminin so that the cell count became 4.8×10^6 cells per 10 cm culture dish, and cultured in a DFNB medium containing 10% FBS, 10 ng/ml CNTF, 50 ng/ml BDNF and 50 ng/ml NT3. The medium was exchanged every 3 days. On 25th day of differentiation culturing, cells were collected and pelletized by a centrifugation operation to remove the culture medium. Thereafter, the pellets were immediately frozen in liquid nitrogen, and stored at −80° C. until use.\nThe analysis was performed by the same method as that of Example 1."}, "[2]": {"system": "orexin gene-expressing cells (orexin neuron) in the lateral hypothalamic area", "test": "Increase in orexin neuron in vivo, in situ hybridization of lateral hypothalamic area of old mouse", "conditions": "old mouse C57BL/6 male, 5 mg/ml in drinking water, 8 weeks from 53- to 61-week-old, versus non-administration old mouse; FIG. 12", "procedure": "ManNAc was dissolved in drinking water, and the drinking water with a concentration of 5 mg/ml was administered to old mouse (C57BL/6, male) by allowing free access to water for 8 weeks in total from 53-week-old to 61-week-old. After completion of the administration, the aforementioned mouse was immediately perfusion fixed and subjected to in situ hybridization method. As a control group, ManNAc non-administration old mouse (61-week-old at the time point of fixing) and young mouse (10-week-old at the time point of fixing) were used.\nEach three mice of ManNAc administration and control groups were anesthetized with Nembutal, and perfusion fixed with formamide fixative (Genostaff). The brain was removed, embedded in paraffin, and 6 μm-thick sections were prepared in the sagittal section direction. […]\nwas cloned into a […] vector (Promega) and, using the plasmid as a template and DIG RNA Labeling Mix (Roche), a digoxygenin-labeled RNA probe was produced. […] The cells that expressed orexin gene were counted and the average of three animals and the standard error were determined."}},
  "data": [
    {"smiles": "CC(=O)N[C@@H]1C(O)O[C@H](CO)[C@@H](O)[C@@H]1O", "note": "(stereo partly drawn) [ManNAc, N-acetyl-D-mannosamine]", "values": [
      {"measurement": "Level of Hcrt expression compared with Neu5Ac-added section", "setting": "[1]", "value": "high expression of Hcrt was observed"},
      {"measurement": "Expression of Hcrt", "setting": "[1]; cells collected on 25th day, FIG. 5", "value": "expression of Hcrt was recognized"},
      {"measurement": "number of orexin gene-expressing cells (orexin neuron) in the lateral hypothalamic area", "setting": "[2]", "value": "orexin neuron increased"}
    ]}
  ]
}
